This is an account of results in patent publication US4367287A, “Process of producing antibiotic AR-5 complex” (Schering Corporation, priority 1981, dated 1983).

Read-outs that look alike come from different tables or passages of the source.

As usually defined, the LD50 is the dose at which mortality reaches 50%. A high value points to a less toxic substance.

One data set has as its system M. polytrota. Put plainly: Antibiotic susceptibility of producing strain. The note with it: for sensitivity of M. polytrota: concentration not given; for Growth in the presence of 50 mcg/ml antibiotic: M. polytrota. The class given is cell-based, Micromonospora polytrota. Here is the method: Test antibiotics were dissolved in the appropriate solvent at a concentration based on an activity of 1000 mcg/ml. Stock solutions were diluted in sterile distilled water to a final concentration of 500 mcg/ml and filter sterilized ([…] filters, Millipore Corporation). To 10 ml of the sterile antibiotic solutions, 90 ml of melted agar consisting of yeast extract, 10 g; dextrose, 10 g; agar, 15 g; tap water, 1000 ml; […] cooled to 45° C. was added, and 20 ml of the resulting mixture was aseptically pipetted into sterile petri dishes (100×150 mm). The final concentration of each antibiotic in the agar was 50 mcg/ml.

The test system of data set [1] is Antibiotic AR-5 Sensitive strains. The data set is described as follows: In vivo mouse protection test, Antibiotic AR-5 sensitive strains. The note with it: for ED50: Mus musculus, Antibiotic AR-5 sensitive strains, number of strains averaged in parentheses, read-out: Mean PD50; for oral potency relative to erythromycin and rosaramicin (fold more potent): in vivo PD50, in general. More on the design: species or system male (Carworth CF-1) mice. How it is done:
(§1) In vivo mouse protection tests were performed in male (Carworth CF-1) mice weighing 18-20 g each. Infection was with about 10^7 organisms per mouse or sufficient inocula to cause death of control groups 24 to 48 hours after infection. The infecting organisms included strains of Staphylococcus Enterococcus, β-hemolytic Streptococcus and E. coli.

For data set [2], the system named is Antibiotic AR-5 Resistant strains. The data set is described as follows: In vivo mouse protection test, Antibiotic AR-5 resistant strains. Details: species or system male (Carworth CF-1) mice. The note with it: read-out: Mean PD50. How it is done: as §1
The nature of data set [3]: Serum levels of the antibiotics. It counts as in vivo. The note with it: mice, rats and dogs. How it is done:
The serum levels of the respective antibiotics were measured in mice, rats and dogs.

A short description of another data set: Acute toxicity in mice. The note with it: mouse, in vivo, male CF-1 mice, survivors at 24 and 48 hours. How it is done:
The acute toxicity determinations were carried out with groups of male (Carworth CF-1) mice weighing 18-20 g. LD50 values […] the dose that was lethal to 50% of the mice) were calculated by probit analysis based on the number of survivors at 24 and 48 hours after dosing.

In the case of `O=C(N[C@H](CO)[C@H](O)c1ccc([N+](=O)[O-])cc1)C(Cl)Cl` [Chloramphenicol], the “sensitivity of M. polytrota” value with M. polytrota was “exhibits sensitivity”.

Take `CCC1OC(=O)/C=C/C(C)C(OC2OC(C)CC(N(C)C)C2O)C(C)CC(C)C(=O)/C=C/C2OC2C1COC1OC(C)C(O)C(OC)C1OC` (stereo not drawn) [A, Antibiotic AR-5 component 1]: the ED50 in data set [1] (sc) is 4 mg/kg; in data set [1] (oral) it was 4.1 mg/kg; in data set [2] (po), 100 mg/kg; in data set [2] (sc) it was 100 mg/kg. Moreover, the “oral potency relative to erythromycin and rosaramicin (fold more potent)” value in data set [1] (oral) was 30-40 fold. In addition, the “duration of therapeutic serum levels” value in data set [3] is recorded as “produces therapeutic serum levels of greater duration”. Also, the LD50 in “Acute toxicity in mice” (ip) turned out to be 310 mg/kg; in “Acute toxicity in mice” (iv), 140 mg/kg.

In the case of `NC[C@H]1O[C@H](O[C@H]2[C@H](O)[C@@H](O[C@H]3O[C@H](CO)[C@@H](O)[C@H](N)[C@H]3O)[C@H](N)C[C@@H]2N)[C@H](O)[C@@H](O)[C@@H]1O` [Kanamycin], in the data set with M. polytrota, the “Growth in the presence of 50 mcg/ml antibiotic” value (“Growth in the presence” for short) is on record as “grows”.

Take `CC[C@H]1OC(=O)C[C@@H](O)[C@H](C)[C@@H](O[C@@H]2O[C@H](C)C[C@H](N(C)C)[C@H]2O)[C@@H](CC=O)C[C@@H](C)C(=O)/C=C/[C@]2(C)O[C@H]2[C@@H]1C` [F, Rosaramicin, reference compound]: the ED50 in data set [1] (sc) amounted to 8.3 mg/kg; in data set [1] (oral), 181 mg/kg; in data set [2] (po), 400 mg/kg; in data set [2] (sc) it was 100 mg/kg. Moreover, the LD50 in the data set “Acute toxicity in mice” (ip) was 260 mg/kg; in “Acute toxicity in mice” (iv) it was 175 mg/kg; in “Acute toxicity in mice” (oral) it was 1300 mg/kg. In addition, the “sensitivity of M. polytrota” value in the data set on M. polytrota is reported as “exhibits sensitivity”.

With `CCC1OC(=O)/C=C/C(C)C(OC2OC(C)CC(N(C)C)C2O)C(C)CC(C)C(=O)/C=C/C=C/C1COC1OC(C)C(O)C(OC)C1OC` (stereo not drawn) [B, 12,13-desepoxy AR-5 component 1], the ED50 was 2.5 mg/kg in data set [1] (sc), 3.8 mg/kg in data set [1] (oral), 100 mg/kg in data set [2] (po) and 100 mg/kg in data set [2] (sc). Further, in data set [1] (oral), the “oral potency relative to erythromycin and rosaramicin (fold more potent)” value is reported as 30-40 fold. Besides, the values for the LD50 in the data set “Acute toxicity in mice” (ip) and in the data set “Acute toxicity in mice” (iv) were 275 mg/kg and 160 mg/kg, respectively.

As for Gentamicin, in the data set with M. polytrota, the “Growth in the presence” value is “grows”.

As for `CN[C@@H]1[C@@H](O)[C@@H](O[C@@H]2[C@@H](O)[C@H](O[C@H]3OC(CN)=CC[C@H]3N)[C@@H](N)C[C@H]2N)OC[C@]1(C)O` [Sisomicin], in the data set with M. polytrota, the “Growth in the presence” value is reported as “grows”.

For `CC[C@H]1OC(=O)[C@H](C)[C@@H](O[C@H]2C[C@@](C)(OC)[C@@H](O)[C@H](C)O2)[C@H](C)[C@@H](O[C@@H]2O[C@H](C)C[C@H](N(C)C)[C@H]2O)[C@](C)(O)C[C@@H](C)C(=O)[C@H](C)[C@@H](O)[C@]1(C)O` [E, Erythromycin, reference compound], the ED50 in data set [1] (sc) is 13.3 mg/kg; in data set [1] (oral), 135 mg/kg; in data set [2] (po) it was 400 mg/kg; in data set [2] (sc) it was 100 mg/kg. Besides, the LD50 stood at 355 mg/kg in “Acute toxicity in mice” (ip) and 260 mg/kg in the data set “Acute toxicity in mice” (iv).

For the compound `CCC[C@@H]1C[C@@H](C(=O)N[C@@H]([C@H]2O[C@H](SC)[C@H](O)[C@@H](O)[C@H]2O)[C@@H](C)O)N(C)C1` [Lincomycin], the “Growth in the presence” value in the data set on M. polytrota was “grows”.

Regarding `CCC[C@@H]1C[C@@H](C(=O)N[C@@H]([C@H]2O[C@H](SC)[C@H](O)[C@@H](O)[C@H]2O)[C@H](C)Cl)N(C)C1` [Clindamycin], the “Growth in the presence” value with M. polytrota is reported as “grows”.

Regarding `CCC1OC(=O)/C=C/C(C)C(OC2OC(C)CC(N(C)C)C2O)C(C)CC(C)C(=O)/C=C/C2OC2C1(O)COC1OC(C)C(O)C(OC)C1OC` (stereo not drawn) [C, Antibiotic AR-5 component 2], the ED50 in data set [1] (sc) is 5.1 mg/kg; in data set [1] (oral), 35.8 mg/kg; in data set [2] (po), 100 mg/kg; in data set [2] (sc), 100 mg/kg. The “time of peak serum levels” value in data set [3] (versus the other antibiotics tested) is given as “produces peak serum levels earlier than any of the other antibiotics tested”. Also, the LD50 in “Acute toxicity in mice” (ip) came out at 610 mg/kg; in the data set “Acute toxicity in mice” (iv), 310 mg/kg.
